The test system of one test is Hepatitis B virus. Description: Antiviral activity was assessed against HBV in hepatoma cell line 2.2.15; inactive. Type of test: functional, organism-based. To be noted: HepG2 2.2.15.
A further test concerns Human betaherpesvirus 5. Nature of the test: Anti-herpetic activity and cytotoxicity evaluated against HCMV-1 (WFI strain) in plaque reduction assay in vero cells and Flow 2002 (human fibroblast) cell; inactive. Type of test: functional, organism-based. (In general: Plaque reduction counts the foci of infection that form in a cell layer.)
Another test is filed under the species Homo sapiens. Description: Cytotoxicity was assessed against in MT-4 (human T-helper) cells at a concentration up to 100 ug/mL; inactive. Type of test: functional, cell-based.
For test [1], the system named is Human alphaherpesvirus 1. Nature of the test: Anti-herpetic activity and cytotoxicity was evaluated against HSV-1 (KOS strain) in plaque reduction assay in vero cells and Flow 2002 (human fibroblast) cell; inactive. Type of test: functional, organism-based.
For test [2], the system named is Human alphaherpesvirus 2. Nature of the test: Anti-herpetic activity and cytotoxicity was evaluated against HSV-2 (186 strain) in plaque reduction assay in vero cells and Flow 2002 (human fibroblast) cell; inactive. Format: functional, organism-based.
The subject of test [3] is Human immunodeficiency virus. Nature of the test: Antiviral activity was assessed against HIV in MT-4 (human T-helper) cells at a concentration up to 100 ug/mL; inactive. Format: functional, organism-based.
Test [4] has as its system Human immunodeficiency virus. Nature of the test: Cytotoxicity of compound was assessed against HIV in MT-4 (human T-helper) cells; inactive. Format: functional.
The subject of test [5] is Human alphaherpesvirus 1. Description: Anti-herpetic activity and cytotoxicity of compound was evaluated against HSV-1 (KOS strain) at concentration up to 100 ug/mL; inactive. Format: functional, organism-based.
Test [6] deals with Human alphaherpesvirus 2. Description: Anti-herpetic activity and cytotoxicity of compound was evaluated against HSV-2 (186 strain) at concentration 100 ug/mL; inactive. Type of test: functional, organism-based.

Calls of active or inactive are those of the source. The calls are words filed in the database; no cut-off is given here.

The text below walks through data of ChEMBL document CHEMBL1132748, “Synthesis and antiviral activities of N-9-oxypurine 1,3-dioxolane and 1,3-oxathiolane nucleosides” (2000).

As to `COc1ncnc2c1ncn2O[C@H]1COC(CO)O1` (stereo not given in full), the result (in the test on Hepatitis B virus; in the test with Human betaherpesvirus 5; in the test filed under Homo sapiens; with Human alphaherpesvirus 1 [1]; with Human alphaherpesvirus 2 [2]; in test [3]) was inactive.
Consider `Nc1ncnc2c1ncn2O[C@H]1COC(CO)O1` (stereo not given in full), for which the result (in the test on Hepatitis B virus; with Human betaherpesvirus 5; in the test listed under Homo sapiens; in the test on Human alphaherpesvirus 1 [1]; in the test on Human alphaherpesvirus 2 [2]; in test [3]) was inactive.
As for `OCC1O[C@H](On2cnc3c(Cl)ncnc32)CS1` (stereo not given in full), the result (in the test with Hepatitis B virus; with Human betaherpesvirus 5; in the test listed under Homo sapiens; in the test with Human alphaherpesvirus 1 [1]; with Human alphaherpesvirus 2 [2]; in test [3]) was inactive.
With `OCC1O[C@@H](On2cnc3c(O)ncnc32)CS1` (stereo not given in full), the outcome (with Hepatitis B virus; in the test with Human betaherpesvirus 5; in the test on Human alphaherpesvirus 1 [1]; in the test with Human alphaherpesvirus 2 [2]; in test [3]) was inactive. Moreover, the CD50 in [4] amounted to 10 µg/mL.
With `OCC1OC[C@@H](On2cnc3c(O)ncnc32)O1` (stereo not given in full), the outcome (in the test with Hepatitis B virus; in the test with Human betaherpesvirus 5; in the test filed under Homo sapiens; in the test with Human alphaherpesvirus 1 [1]; in the test with Human alphaherpesvirus 2 [2]; in test [3]) was inactive.
In the case of `OCC1OC[C@H](On2cnc3c(Cl)ncnc32)O1` (stereo not given in full), the outcome (in the test with Hepatitis B virus; in the test with Human betaherpesvirus 5; in the test filed under Homo sapiens; in the test with Human alphaherpesvirus 1 [1]; in the test on Human alphaherpesvirus 2 [2]; in test [3]) was inactive.
Consider `OCC1O[C@@H](On2cnc3c(Cl)ncnc32)CS1` (stereo not given in full), for which the outcome (with Hepatitis B virus; in the test on Human betaherpesvirus 5; in the test listed under Homo sapiens; in the test on Human alphaherpesvirus 1 [1]; with Human alphaherpesvirus 2 [2]; in test [3]) was inactive.
Turning to `COc1ncnc2c1ncn2O[C@H]1CSC(CO)O1` (stereo not given in full), the result (in the test with Hepatitis B virus; in the test with Human betaherpesvirus 5; in the test filed under Homo sapiens; in the test with Human alphaherpesvirus 1 [1]; in the test on Human alphaherpesvirus 2 [2]; in [3]) was inactive.
As to `OCC1OC[C@H](On2cnc3c(O)ncnc32)O1` (stereo not given in full), the result (in the test on Hepatitis B virus; in the test on Human betaherpesvirus 5; in the test filed under Homo sapiens; with Human alphaherpesvirus 1 [1]; in the test with Human alphaherpesvirus 2 [2]; in [3]) was inactive.
Consider `Nc1nc(O)c2ncn(O[C@H]3COC(CO)O3)c2n1` (stereo not given in full), for which the outcome in the test with Human alphaherpesvirus 1 [5] and with Human alphaherpesvirus 2 [6] was inactive.
As to `COc1ncnc2c1ncn2O[C@@H]1CSC(CO)O1` (stereo not given in full), the outcome (in the test with Hepatitis B virus; in the test on Human betaherpesvirus 5; in the test filed under Homo sapiens; with Human alphaherpesvirus 1 [1]; with Human alphaherpesvirus 2 [2]; in test [3]) was inactive.
For the molecule `COc1ncnc2c1ncn2O[C@@H]1COC(CO)O1` (stereo not given in full), the outcome (in the test on Hepatitis B virus; with Human betaherpesvirus 5; in the test filed under Homo sapiens; in the test on Human alphaherpesvirus 1 [1]; in the test on Human alphaherpesvirus 2 [2]; in test [3]) was inactive.
Regarding `OCC1O[C@H](On2cnc3c(O)ncnc32)CS1` (stereo not given in full), the result (with Hepatitis B virus; in the test with Human betaherpesvirus 5; in the test filed under Homo sapiens; in the test on Human alphaherpesvirus 1 [1]; with Human alphaherpesvirus 2 [2]; in test [3]) was inactive.
As to `Nc1nc(O)c2ncn(O[C@@H]3COC(CO)O3)c2n1` (stereo not given in full), the outcome in the test on Human alphaherpesvirus 1 [5] and with Human alphaherpesvirus 2 [6] was inactive.
Turning to `OCC1OC[C@@H](On2cnc3c(Cl)ncnc32)O1` (stereo not given in full), the result (in the test with Hepatitis B virus; in the test with Human betaherpesvirus 5; in the test filed under Homo sapiens; in the test with Human alphaherpesvirus 1 [1]; with Human alphaherpesvirus 2 [2]; in test [3]) was inactive.
On to `Nc1ncnc2c1ncn2O[C@H]1CSC(CO)O1` (stereo not given in full), for which the outcome (in the test with Hepatitis B virus; in the test on Human betaherpesvirus 5; in the test listed under Homo sapiens; with Human alphaherpesvirus 1 [1]; in the test with Human alphaherpesvirus 2 [2]; in [3]) was inactive.
As for `Nc1ncnc2c1ncn2O[C@@H]1CSC(CO)O1` (stereo not given in full), the outcome (with Hepatitis B virus; in the test on Human betaherpesvirus 5; in the test filed under Homo sapiens; in the test with Human alphaherpesvirus 1 [1]; in the test on Human alphaherpesvirus 2 [2]; in test [3]) was inactive.
With `Nc1ncnc2c1ncn2O[C@@H]1COC(CO)O1` (stereo not given in full), the outcome (with Hepatitis B virus; in the test with Human betaherpesvirus 5; in the test listed under Homo sapiens; in the test on Human alphaherpesvirus 1 [1]; in the test with Human alphaherpesvirus 2 [2]; in test [3]) was inactive.
